Experimental data reported in patent publication EP0724884B1, “SIDE EFFECT INHIBITOR FOR CANCER THERAPY” (Nakamura, Toshikazu, priority 1991, dated 1993).

Tested on: primary-culture hepatocytes
Experiment: Leakage of GOT from primary-culture hepatocytes exposed to liver poison (Test Examples 1-4)
Assay type: cell-based, rat
Settings: Liver poison alone, no addition of HGF (Carbon tetrachloride 5 mM; Mitomycin C 8 µM); culture for 24 hours; control 6.0 ± 0.4
Protocol: The primary culture was carried out as follows: Isolated hepatocytes were dispersed in William's medium (5% bovine serum, 10^-9 M insulin and 10^-9 M dexamethasone) and the cells were seeded in a 12-well plastic dish (Corning Co.) having the bottom coated with Type-I collagen. The culture medium was exchanged with the medium containing aprotinin at 0.5 µg/ml and without serum and hormones 2 hours later.
The protective effect of HGF on the hepatocytes was tested by the effect on the leakage to enzymes from the cytoplasm of the hepatocytes in the primary culture.
In order to mimick this phenomenon, hepatocyte primary-culture added with the liver poison was used. Thus the leakage of cytoplasmic enzymes such as GOT was measured in this culture system, and the protective activity on the hepatocytes by HGF was estimated along with measurement of the degree of inhibition of leakage of GOT or others. […]
The primary-culture hepatocytes described in Reference Example 3 were seeded at the surface density of 1.2 x 10^5 cells/cm^2 and on the next day, the medium was changed to one without serum, followed by the addition of HGF at 10 ng/ml and/or carbon tetrachloride at 5 mM. […] The GOT activity in the supernatant was measured by the conventional method. […]

Compound: ClC(Cl)(Cl)Cl [Carbon tetrachloride]
- GOT activity: 12.7 ± 1.2 mU/ml
